ChEMBL document CHEMBL6127130, “Pullenvalenes E-H: Triterpenyl-Aminoglycosides from an Australian Soil-Derived Fungus, Clonostachys sp” (J Nat Prod, 2024)

Key:
[1] = Inhibition of RANKL-induced osteoclastogenesis in mouse RAW264 cells assessed as reduction in multinucleated TRAP positive osteoclasts incubated for 4 days by TRAP staining based light microscopic analysis; format: functional, cell-based; settings: raw264.7
Candida albicans = experiment: Antifungal activity against Candida albicans ATCC 10231 assessed as inhibition of fungal growth incubated for 48 hrs by serial dilution based spectrophotometric analysis; format: functional, organism-based; settings: ATCC 10231, 48 h
SW-620 = experiment: Cytotoxicity against human SW620 cells assessed as inhibition of cell growth incubated for 24 hrs by MTT assay; format: functional, cell-based; settings: SW-620, 24 h
NCI-H460 = experiment: Cytotoxicity against human NCI-H460 cells assessed as inhibition of cell growth incubated for 24 hrs by MTT assay; format: functional, cell-based; settings: NCI-H460, 24 h
Escherichia coli = experiment: Antibacterial activity against Escherichia coli ATCC 11775 assessed as inhibition of bacterial growth incubated for 24 hrs by serial dilution based spectrophotometric analysis; format: functional, organism-based; settings: ATCC 11775, 24 h
Staphylococcus aureus = experiment: Antibacterial activity against Staphylococcus aureus ATCC 25923 assessed as inhibition of bacterial growth incubated for 24 hrs by serial dilution based spectrophotometric analysis; format: functional, organism-based; settings: ATCC 25923, 24 h

Q: Which IC50 [1] does the source give for `CC(C)[C@@]1(O)CC[C@@]2(C)C[C@](O)([C@@H]3CC[C@@H]4[C@]3(C)CC[C@H]3OC(C)(C)[C@H](O)C(=O)[C@@H](O)[C@]43C)CC[C@H]21` here?
A: 12.8 µM

Q: Which IC50 (Candida albicans) does the source give for `COC[C@H]1O[C@H](O[C@@]2(C)CC[C@@H](C(C)(C)O)O[C@@H]2CC[C@H](C)[C@@]2(C)CCC3=C2CC[C@@H]2OC(C)(C)[C@H](O[C@H]4O[C@H](COC)[C@@H](O)[C@H](O)[C@H]4NC(C)=O)[C@@H](O)C[C@@]32C)[C@H](NC(C)=O)[C@@H](O)[C@@H]1O` here?
A: > 30 µM

Q: And the IC50 (SW-620)?
A: > 30 µM

Q: And the IC50 (NCI-H460)?
A: > 30 µM

Q: And the IC50 (Escherichia coli)?
A: > 30 µM

Q: What about the IC50 (Staphylococcus aureus) of the same compound?
A: > 30 µM

Q: What does the source list for `COC[C@H]1O[C@H](O[C@@]2(C)CC[C@@H](C(C)(C)O)O[C@@H]2CC[C@H](C)[C@@]2(C)CC=C3[C@@H]2CC[C@@H]2OC(C)(C)[C@H](O[C@H]4O[C@H](COC)[C@@H](O)[C@H](O)[C@H]4NC(C)=O)[C@@H](O)C[C@@]32C)[C@H](NC(C)=O)[C@@H](O)[C@@H]1O`?
A: IC50 (Candida albicans): > 30 µM; IC50 (SW-620): > 30 µM; IC50 (NCI-H460): > 30 µM; IC50 (Escherichia coli): > 30 µM; IC50 (Staphylococcus aureus): > 30 µM

Q: For `CC(C)[C@@]1(O)CC[C@@]2(C)C[C@](O)([C@@H]3CC[C@@H]4[C@]3(C)CC[C@H]3OC(C)(C)[C@H](O)C(=O)[C@H](O)[C@]43C)CC[C@H]21`, which IC50 [1] is on record?
A: 32.8 µM

Q: Which IC50 (Candida albicans) does the source give for `COC[C@H]1O[C@H](O[C@@H]2CC[C@@]3(C)C4=CC[C@](C)([C@@H](C)CC[C@H]5O[C@H](C(C)(C)O)CC[C@]5(C)O)[C@H]4CC[C@@H]3OC2(C)C)[C@H](NC(C)=O)[C@@H](O)[C@@H]1O` here?
A: > 30 µM

Q: What about the IC50 (SW-620) of the same compound?
A: > 30 µM

Q: What about the IC50 (NCI-H460) of the same compound?
A: > 30 µM

Q: And the IC50 (Escherichia coli)?
A: > 30 µM

Q: And the IC50 (Staphylococcus aureus)?
A: > 30 µM

Q: Which results are given for `COC[C@H]1O[C@H](O[C@@H]2CC[C@@]3(C)C4=CC[C@](C)([C@@H](C)CC[C@H]5O[C@H](C(C)(C)O)CC[C@]5(C)O[C@H]5O[C@H](COC)[C@@H](O)[C@H](O)[C@H]5NC(C)=O)[C@H]4CC[C@@H]3OC2(C)C)[C@H](NC(C)=O)[C@@H](O)[C@@H]1O`?
A: IC50 (Candida albicans): > 30 µM; IC50 (SW-620): > 30 µM; IC50 (NCI-H460): > 30 µM; IC50 (Escherichia coli): > 30 µM; IC50 (Staphylococcus aureus): > 30 µM

Q: With `COC[C@H]1O[C@H](O[C@@H]2[C@@H](O)C[C@@]3(C)C4=CC[C@](C)([C@@H](C)CC[C@H]5O[C@H](C(C)(C)O)CC[C@]5(C)O)[C@H]4CC[C@@H]3OC2(C)C)[C@H](NC(C)=O)[C@@H](O)[C@@H]1O` as the compound, how does the IC50 (Candida albicans) read?
A: > 30 µM

Q: And the IC50 (SW-620)?
A: > 30 µM

Q: What about the IC50 (NCI-H460) of the same compound?
A: > 30 µM

Q: And the IC50 (Escherichia coli)?
A: > 30 µM

Q: And the IC50 (Staphylococcus aureus)?
A: > 30 µM

Q: With `CC(=O)N[C@H]1[C@@H](O[C@@H]2CC[C@@]3(C)C4=CC[C@](C)([C@@H](C)CC[C@H]5O[C@H](C(C)(C)O)CC[C@]5(C)O)[C@H]4CC[C@@H]3OC2(C)C)O[C@H](CO)[C@@H](O)[C@@H]1O` as the compound, how does the IC50 (Candida albicans) read?
A: > 30 µM

Q: What about the IC50 (SW-620) of the same compound?
A: > 30 µM

Q: What about the IC50 (NCI-H460) of the same compound?
A: > 30 µM

Q: And the IC50 (Escherichia coli)?
A: > 30 µM

Q: What about the IC50 (Staphylococcus aureus) of the same compound?
A: > 30 µM

Q: For `COC[C@H]1O[C@H](O[C@@H]2CC[C@@]3(C)C4=C(CC[C@@H]3OC2(C)C)[C@@](C)([C@@H](C)CC[C@H]2O[C@H](C(C)(C)O)CC[C@]2(C)O[C@H]2O[C@H](COC)[C@@H](O)[C@H](O)[C@H]2NC(C)=O)CC4)[C@H](NC(C)=O)[C@@H](O)[C@@H]1O`, which IC50 (Candida albicans) is on record?
A: > 30 µM

Q: What about the IC50 (SW-620) of the same compound?
A: > 30 µM

Q: And the IC50 (NCI-H460)?
A: > 30 µM

Q: What about the IC50 (Escherichia coli) of the same compound?
A: > 30 µM

Q: And the IC50 (Staphylococcus aureus)?
A: > 30 µM

Q: Which IC50 (Candida albicans) does the source give for `COC[C@H]1O[C@H](O[C@@]2(C)CC[C@@H](C(C)(C)O)O[C@@H]2CC[C@H](C)[C@@]2(C)CC=C3[C@@H]2CC[C@@H]2OC(C)(C)[C@H](O[C@H]4O[C@H](CO)[C@@H](O)[C@H](O)[C@H]4NC(C)=O)CC[C@@]32C)[C@H](NC(C)=O)[C@@H](O)[C@@H]1O` here?
A: > 30 µM

Q: And the IC50 (SW-620)?
A: > 30 µM

Q: And the IC50 (NCI-H460)?
A: > 30 µM

Q: What about the IC50 (Escherichia coli) of the same compound?
A: > 30 µM

Q: And the IC50 (Staphylococcus aureus)?
A: > 30 µM
